Consider 15 compounds from patent US8119633B2, “Substituted sulfonamide compounds” (Gruenenthal GmbH, priority 2007, dated 2012).

For the first assay, the target named is T1, bradykinin receptor 1 (B1R) of the rat (Rattus norvegicus, UniProt P97583).
T1 construct: expressed in transfected cells; host or cells: CHO K1 cells
T1 sequence (P97583 1-337): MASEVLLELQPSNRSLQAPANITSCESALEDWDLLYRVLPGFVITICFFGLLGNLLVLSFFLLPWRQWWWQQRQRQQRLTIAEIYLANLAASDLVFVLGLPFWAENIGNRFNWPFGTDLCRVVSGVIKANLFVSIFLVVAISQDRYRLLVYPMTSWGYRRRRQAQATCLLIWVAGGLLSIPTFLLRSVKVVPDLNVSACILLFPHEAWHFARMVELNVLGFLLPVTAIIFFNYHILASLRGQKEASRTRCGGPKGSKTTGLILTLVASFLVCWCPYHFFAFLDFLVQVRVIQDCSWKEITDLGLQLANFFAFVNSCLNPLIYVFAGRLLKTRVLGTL
The assay can be described thus: Functional study on the bradykinin receptor 1 (B1R), rat: FLIPR Ca2+ influx assay. Type of assay: cell-based. The conditions noted are these: test substance 10 μM; CHO K1 cells transfected with rat B1R; Des-Arg9-bradykinin at EC80; Ca2+ influx (Fluo-4, FLIPR); read-out: B1R antagonism, rat [10 μM] % inhibition. The text has this: (§1) The agonistic or antagonistic action of substances can be determined on the bradykinin receptor 1 (B1R) of the species human and rat using the following assay. According to this assay, the Ca^2+ influx through the channel is quantified with the aid of a Ca^2+-sensitive dye (Fluo-4 type, Molecular Probes Europe BV, Leiden, Netherlands) using a Fluorescent Imaging Plate Reader (FLIPR, Molecular Devices, Sunnyvale, USA).
(§2) Chinese hamster ovary cells (CHO K1 cells) which have been stably transfected with the human B1R gene (hB1R cells) or with the B1R gene of the rat (rB1R cells) are used. For functional studies, the cells are plated out on black 96-well plates having a clear base (BD Biosciences, Heidelberg, Germany or Greiner, Frickenhausen, Germany) in a density of 20,000-35,000 cells/well. The cells are incubated overnight at 37° C. and with 5% CO2 in culture medium (hB1R cells: Nutrient Mixture Ham's F12, Gibco Invitrogen GmbH, Karlsruhe, Germany or DMEM, Sigma-Aldrich, Taufkirchen, Germany; rB1R cells: D-MEM/F12, Gibco Invitrogen GmbH, Karlsruhe, Germany), with 10 vol. % FBS (fetal bovine serum, Gibco Invitrogen GmbH, Karlsruhe, Germany or PAN Biotech GmbH, Aidenbach, Germany).
(§3) On the following day, the cells are loaded for 60 minutes at 37° C. with 2.13 μM Fluo-4 (Molecular Probes Europe BV, Leiden, Netherlands) in HBSS buffer (Hank's buffered saline solution, Gibco Invitrogen GmbH, Karlsruhe, Germany) with 2.5 mM probenecid (Sigma-Aldrich, Taufkirchen, Germany) and 10 mM HEPES (Sigma-Aldrich, Taufkirchen, Germany). The plates are then washed twice with HBSS buffer, and HBSS buffer additionally containing 0.1% BSA (bovine serum albumin; Sigma-Aldrich, Taufkirchen, Germany), 5.6 mM glucose and 0.05% gelatin (Merck KGaA, Darmstadt, Germany) is added to the plates. After incubation for a further 20 minutes at room temperature, the plates are inserted into the FLIPR for Ca^2+ measurement. Alternatively, washing is carried out with buffer A (15 mM HEPES, 80 mM NaCl, 5 mM KCl, 1.2 mM CaCl2, 0.7 mM MgSO4, 2 g/l glucose, 2.5 mM probenecid) followed by loading with buffer A with added 2.5 μM Fluo-4 and 0.025% Pluronic F127 (Sigma-Aldrich, Taufkirchen, Germany). The cells are then washed twice with buffer A and incubated for 30 minutes at room temperature with buffer A additionally containing 0.05% BSA and 0.05% gelatin and are then inserted into the FLIPR for Ca^2+ measurement.
(§4) The Ca^2+-dependent fluorescence is measured before and after the addition of substances (λex=488 nm, λem=540 nm). Quantification is carried out by measuring the highest fluorescence intensity (FC, fluorescence counts) over time.
(§5) The FLIPR protocol consists of two substance additions. Test substances (10 μM) are first pipetted onto the cells and the Ca^2+ influx is compared with the control (hB1R: Lys-Des-Arg^9-bradykinin>=0.5 nM; rB1R: Des-Arg^9-bradykinin 10 μM). This gives the activation in %, based on the Ca^2+ signal after addition of Lys-Des-Arg^9-bradykinin (>=0.5 nM) or Des-Arg^9-bradykinin (10 μM).
(§6) After 10-20 minutes' incubation, Lys-Des-Arg^9-bradykinin (hB1R) or Des-Arg^9-bradykinin (rB1R) is applied in the concentration of the EC80, and the influx of Ca^2+ is likewise determined.
(§7) Antagonists lead to suppression of the Ca^2+ influx. The % inhibition compared with the maximum achievable inhibition is calculated.
(§8) In order to determine the IC50 value, the substances are added in various concentrations. Duplicate or triplicate determinations (n=2 or n=3) are carried out, and these are repeated in at least one further independent experiment (N>=2).
On to `COc1ccc(S(=O)(=O)N2CCc3ccccc3C2CC(=O)NC2CCC(C(c3ccccc3)N(C)C)CC2)cc1` (centres unmarked) [Example 9, N-[4-(dimethylamino-phenyl-methyl)-cyclohexyl]-2-[2-(4-methoxy-benzenesulfonyl)-1,2,3,4-tetrahydro-isoquinolin-1-yl]-acetamide], for which the inhibition at 10 µM is 0%.

With `CN(C)C(c1ccccc1)C1CCC(NC(=O)CC2c3ccccc3CCN2S(=O)(=O)c2ccc(Cl)c(Cl)c2)CC1` (centres unmarked) [Example 10, 2-[2-(3,4-dichloro-benzenesulfonyl)-1,2,3,4-tetrahydro-isoquinolin-1-yl]-N-[4-(dimethylamino-phenyl-methyl)-cyclohexyl]-acetamide], the inhibition at 10 µM is 0%.

As to `CN(C)C(c1ccccc1)C1CCC(NC(=O)c2c(N(C)S(=O)(=O)c3ccc(Cl)c(Cl)c3)sc3c2CCCC3)CC1` (centres unmarked) [Example 12, 2-[(3,4-dichloro-benzenesulfonyl)-methyl-amino]-4,5,6,7-tetrahydrobenzo[b]thiophene-3-carboxylic acid [4-(dimethylamino-phenyl-methyl)cyclohexyl]-amide], the inhibition at 10 µM came out at 0%.

As to `CN(C)C(c1cccs1)C1CCC(CNC(=O)c2ccccc2N(C)S(=O)(=O)c2ccc(Cl)c(Cl)c2)CC1` (centres unmarked) [Example 42, 2-[(3,4-dichloro-benzenesulfonyl)-methyl-amino]-N-[4-(dimethylamino-thiophen-2-yl-methyl)-cyclohexylmethyl]-benzamide], the inhibition at 10 µM turned out to be 3%.

With `CN(C)C(c1ccccc1)C1CCC(CNC(=O)c2c(N(C)S(=O)(=O)c3ccc(Cl)c(Cl)c3)sc3c2CCCC3)CC1` (centres unmarked) [Example 46, 2-[(3,4-dichloro-benzenesulfonyl)-methyl-amino]-4,5,6,7-tetrahydrobenzo[b]thiophene-3-carboxylic acid [4-(dimethylamino-phenyl-methyl)cyclohexylmethyl]-amide], the inhibition at 10 µM was -9%.

In the case of `CN(C)C(c1ccc(F)cc1)C1CCC(CNC(=O)c2c(N(C)S(=O)(=O)c3ccc(Cl)c(Cl)c3)sc3c2CCCC3)CC1` (centres unmarked) [Example 47, 2-[(3,4-dichloro-benzenesulfonyl)-methyl-amino]-4,5,6,7-tetrahydrobenzo[b]thiophene-3-carboxylic acid {4-[dimethylamino-(4-fluoro-phenyl)methyl]-cyclohexylmethyl}-amide], the inhibition at 10 µM is 12%.

Turning to `CN(C)C(c1ccc(Cl)cc1)C1CCC(CNC(=O)c2c(N(C)S(=O)(=O)c3ccc(Cl)c(Cl)c3)sc3c2CCCC3)CC1` (centres unmarked) [Example 48, 2-[(3,4-dichloro-benzenesulfonyl)-methyl-amino]-4,5,6,7-tetrahydrobenzo[b]thiophene-3-carboxylic acid {4-[(4-chloro-phenyl)-dimethylamino-methyl]-cyclohexylmethyl}-amide], the inhibition at 10 µM was 19%.

Turning to `CN(C)C(c1cccs1)C1CCC(CNC(=O)c2c(N(C)S(=O)(=O)c3ccc(Cl)c(Cl)c3)sc3c2CCCC3)CC1` (centres unmarked) [Example 49, 2-[(3,4-dichloro-benzenesulfonyl)-methyl-amino]-4,5,6,7-tetrahydrobenzo[b]thiophene-3-carboxylic acid [4-(dimethylamino-thiophen-2-yl-methyl)cyclohexylmethyl]-amide], the inhibition at 10 µM was 19%.

Regarding `CN(C)C(c1ccc(Cl)cc1)C1CCC(CCNC(=O)c2c(N(C)S(=O)(=O)c3ccc(Cl)c(Cl)c3)sc3c2CCCC3)CC1` (centres unmarked) [Example 50, N-(2-(4-((4-chlorophenyl)(dimethylamino)methyl)cyclohexyl)ethyl)-2-(3,4-dichloro-N-methylphenylsulfonamido)-4,5,6,7-tetrahydrobenzo[b]thiophene-3-carboxamide], the inhibition at 10 µM worked out at 11%.

With `CN(C)C(c1cccc(F)c1)C1CCC(CCNC(=O)c2c(N(C)S(=O)(=O)c3ccc(Cl)c(Cl)c3)sc3c2CCCC3)CC1` (centres unmarked) [Example 51, 2-(3,4-dichloro-N-methylphenylsulfonamido)-N-(2-(4-((dimethylamino)(3-fluorophenyl)methyl)cyclohexyl)ethyl)-4,5,6,7-tetrahydrobenzo[b]thiophene-3-carboxamide], the inhibition at 10 µM came out at 1%.

Consider `CN(C)C(c1ccc(F)cc1)C1CCC(CCNC(=O)c2c(N(C)S(=O)(=O)c3ccc(Cl)c(Cl)c3)sc3c2CCCC3)CC1` (centres unmarked) [Example 52, 2-(3,4-dichloro-N-methylphenylsulfonamido)-N-(2-(4-((dimethylamino)(4-fluorophenyl)methyl)cyclohexyl)ethyl)-4,5,6,7-tetrahydrobenzo[b]thiophene-3-carboxamide], for which the inhibition at 10 µM is -22%.

As for `CN(C)C(c1cccs1)C1CCC(CCNC(=O)c2c(N(C)S(=O)(=O)c3ccc(Cl)c(Cl)c3)sc3c2CCCC3)CC1` (centres unmarked) [Example 53, 2-(3,4-dichloro-N-methylphenylsulfonamido)-N-(2-(4-((dimethylamino)(thiophen-2-yl)methyl)cyclohexyl)ethyl)-4,5,6,7-tetrahydrobenzo[b]thiophene-3-carboxamide], the inhibition at 10 µM amounted to 12%.

`CN(C)C(c1ccc(F)cc1)C1CCC(NC(=O)C2Cc3ccccc3N2S(=O)(=O)c2ccc(Cl)c(Cl)c2)CC1` (centres unmarked) [Example 94, 1-(3,4-dichlorophenylsulfonyl)-N-(4-((dimethylamino)(4-fluorophenyl)methyl)cyclohexyl)indoline-2-carboxamide]: the inhibition at 10 µM is -19%.

On to `CN(C)C(CCc1ccccc1)C1CCC(CNC(=O)C2Cc3ccccc3N2S(=O)(=O)c2ccc(Cl)c(Cl)c2)CC1` (centres unmarked) [Example 96, 1-(3,4-dichlorophenylsulfonyl)-N-((4-(1-(dimethylamino)-3-phenylpropyl)cyclohexyl)methyl)indoline-2-carboxamide], for which the inhibition at 10 µM was determined as 12%.

On to `COc1ccc(S(=O)(=O)N(C)C2(C(=O)NCCC3CCC(C(c4ccccc4)N(C)C)CC3)CCCCC2)cc1` (centres unmarked) [Example 100, N-(2-(4-((dimethylamino)(phenyl)methyl)cyclohexyl)ethyl)-1-(4-methoxy-N-methylphenylsulfonamido)cyclohexanecarboxamide], for which the inhibition at 10 µM is -2%.

The next assay addresses T2, human bradykinin receptor 1 (B1R) (Homo sapiens, UniProt P46663).
T2 construct: expressed in transfected cells; host or cells: CHO K1 cells
T2 sequence (P46663 1-353): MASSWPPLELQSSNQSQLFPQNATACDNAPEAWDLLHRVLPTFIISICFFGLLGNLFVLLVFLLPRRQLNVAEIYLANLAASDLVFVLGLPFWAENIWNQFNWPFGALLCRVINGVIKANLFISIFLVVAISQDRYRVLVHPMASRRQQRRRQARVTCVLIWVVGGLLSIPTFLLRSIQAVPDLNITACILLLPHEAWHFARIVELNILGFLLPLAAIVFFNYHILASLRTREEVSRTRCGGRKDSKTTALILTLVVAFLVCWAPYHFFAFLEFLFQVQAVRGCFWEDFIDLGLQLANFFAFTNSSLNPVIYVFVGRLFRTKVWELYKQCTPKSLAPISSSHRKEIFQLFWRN
The assay can be described thus: Functional study on the bradykinin receptor 1 (B1R), human: FLIPR Ca2+ influx assay. Particulars: test substance 10 μM; CHO K1 cells transfected with human B1R; Lys-Des-Arg9-bradykinin at EC80; Ca2+ influx (Fluo-4, FLIPR); read-out: B1R antagonism, human [10 μM] % inhibition. It counts as cell-based.
Excerpt: Functional Study on the Human Bradykinin Receptor 1 (B1R)
as §1, §2, §3, §4, §5, §6, §7, §8
In the case of `COc1ccc(S(=O)(=O)N2CCc3ccccc3C2CC(=O)NC2CCC(C(c3ccccc3)N(C)C)CC2)cc1` (centres unmarked) [Example 9, N-[4-(dimethylamino-phenyl-methyl)-cyclohexyl]-2-[2-(4-methoxy-benzenesulfonyl)-1,2,3,4-tetrahydro-isoquinolin-1-yl]-acetamide], the inhibition at 10 µM amounted to 105%.

With `CN(C)C(c1ccccc1)C1CCC(NC(=O)CC2c3ccccc3CCN2S(=O)(=O)c2ccc(Cl)c(Cl)c2)CC1` (centres unmarked) [Example 10, 2-[2-(3,4-dichloro-benzenesulfonyl)-1,2,3,4-tetrahydro-isoquinolin-1-yl]-N-[4-(dimethylamino-phenyl-methyl)-cyclohexyl]-acetamide], the inhibition at 10 µM came out at 70.1%.

A word on the inhibition: it is the change of the read-out against control, counted positive when it falls.
